Laboratory results as given in paper PMC6934184, “Selective DNA-PKcs inhibition extends the therapeutic index of localized radiotherapy and chemotherapy” (The Journal of Clinical Investigation, 2019).

Biological target: T1, PDGFRB (PDGFR beta) (Homo sapiens, UniProt P09619)
T1 construct: purchased Thermo Fisher Scientific (Life Technologies) SelectScreen
Assay: SelectScreen Z'LYTE
Assay type: biochemical
Summary of the method: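 SelectScreen broad panel; activity (Z'LYTE, Adapta) plus binding formats. ATP: Km app for CSF1R Z'LYTE; 10 for CAMK1 Adapta. Readout = % per kinase.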

T1 sequence (P09619 33-1106): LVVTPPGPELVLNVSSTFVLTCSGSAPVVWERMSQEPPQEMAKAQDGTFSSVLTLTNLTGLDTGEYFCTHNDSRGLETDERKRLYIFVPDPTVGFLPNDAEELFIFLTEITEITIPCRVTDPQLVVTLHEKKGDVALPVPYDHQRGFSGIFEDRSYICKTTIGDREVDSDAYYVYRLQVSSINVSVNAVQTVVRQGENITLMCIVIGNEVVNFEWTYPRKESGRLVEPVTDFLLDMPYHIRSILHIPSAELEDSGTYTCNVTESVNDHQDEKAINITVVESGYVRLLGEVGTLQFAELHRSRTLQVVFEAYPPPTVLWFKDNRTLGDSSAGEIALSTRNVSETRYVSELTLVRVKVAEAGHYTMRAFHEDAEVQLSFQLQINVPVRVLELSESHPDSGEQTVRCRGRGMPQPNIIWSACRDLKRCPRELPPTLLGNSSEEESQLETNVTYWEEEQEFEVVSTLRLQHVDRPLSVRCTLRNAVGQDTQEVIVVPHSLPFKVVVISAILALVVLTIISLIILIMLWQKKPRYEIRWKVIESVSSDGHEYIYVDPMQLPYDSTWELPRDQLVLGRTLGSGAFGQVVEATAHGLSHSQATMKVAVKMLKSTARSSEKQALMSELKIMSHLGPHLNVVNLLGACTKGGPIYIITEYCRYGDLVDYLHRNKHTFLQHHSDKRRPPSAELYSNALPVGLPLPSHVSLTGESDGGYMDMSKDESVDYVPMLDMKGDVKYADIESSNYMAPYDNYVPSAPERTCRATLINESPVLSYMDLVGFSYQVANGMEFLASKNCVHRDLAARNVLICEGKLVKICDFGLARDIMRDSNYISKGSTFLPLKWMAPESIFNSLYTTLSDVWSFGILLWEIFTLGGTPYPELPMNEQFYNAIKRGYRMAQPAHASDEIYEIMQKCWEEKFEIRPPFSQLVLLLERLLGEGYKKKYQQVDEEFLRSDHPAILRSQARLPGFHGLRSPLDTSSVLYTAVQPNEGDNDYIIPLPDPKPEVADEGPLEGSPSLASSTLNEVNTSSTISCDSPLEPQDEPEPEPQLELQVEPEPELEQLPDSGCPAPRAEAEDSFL

## CN(C(=O)CN1CCOCC1)c1ccc2sc3c(-c4cccc5c(=O)cc(N6CC7CCC(C6)O7)oc45)cccc3c2c1 [NU5455]
  inhibition at 1 µM: 11%
